Structures can show the parent of a compound that is named as a salt. One block for each molecule: values may come before it.
Target: apamin-sensitive sites of the SK channels
Test: Competition binding between 125I-apamin and bis-tetrahydroisoquinoline derivatives on rat cortical synaptosomes
Conditions: for Ki: separated stereoisomers, rat cortical apamin sensitive sites, 125I-apamin; for % of 125I-apamin displaced at 10 μM: 10 μM compound, ±10 pM 125I-apamin, rat cortical synaptosomes, 1 h at 0° C.
Method: These experiments are used to evaluate the potency of the bis-tetrahydroisoquinoline derivatives to interact with the apamin-sensitive sites of the SK channels, the selected target for which a blockade is expected to be useful in the treatment of Alzheimer's disease, Parkinson's disease, schizophrenia, cognitive dysfunction, or depression. Two reference compounds are also tested for comparison
Rats (male Wistar, ±250 g) were killed by decapitation and the brains were quickly removed and kept on ice during dissection. Crude cortex was dispersed in 0.32 M sucrose by using a Pottero homogenizer. After a first centrifugation at 1500×g for 10 min, the supernatant was centrifuged at 25000×g for 10 min. The resulting pellet was dispersed in 5 mL 0.32 M sucrose to be aliquoted. Protein concentration was determined by the method of Hartree with bovine serum albumin as a standard.^36
The buffer consisted of a 10 mM Tris-HCl (pH 7.5) solution containing 5.4 mM KCl and 0.1% bovine serum albumin. The radioligand was ^125I-apamin (Perkin-Elmer, Specific activity 81.4 TBq mmol^−1). Glass fibre filters (Whatman GF/C) used in these experiments were coated for 1 h in 0.5% polyethylenimine and then washed with 2.5 mL of the ice-cold buffer just before use. Binding experiments were always terminated as follows. Aliquots were filtered under reduced pressure through Whatman filters. Filters were rapidly washed twice with 2.5 mL of buffer. The radioactivity remaining on the filter was evaluated with a Packard Tri-Carb 1600TR liquid scintillation analyser with an efficacy of 69%. ^125I-apamin binding to the filters was also estimated in the absence of synaptosomes. This binding was also substracted from the total binding. Curve fitting was carried out using GraphPad Prism.
Saturation Binding Experiments—Synaptosomes (0.2 mg of protein/mL) were incubated with increasing concentrations of ^125I-apamin (25 μL) with 975 μL of incubation buffer for 1 h at 0° C. Samples were then filtered on Whatman GF/C filter and the radioactivity was measured as described above. Non specific binding was determined in parallel experiments in the presence of an excess of unlabeled apamin (0.1 μM) and subtracted from the total binding to obtain the specific binding.
Competition Experiments between ^125I-apamin and Bis-tetrahydroisoquinoline derivatives—Synaptosomes (0.2 mg of protein/mL) were incubated for 1 h at 0° C. with ±10 pM of ^125I-apamin (25 μL) and nine concentrations of bis-tetrahydroisoquinoline derivatives (10^−4 to 10^−7 M). Non specific binding was determined in the presence of an excess of unlabeled apamin (0.1 μM). Samples were then filtered on Whatman filter and the radioactivity was measured as described above.

Ki (listed as 4n E1): 1010 ± 144 nM
SMILES: COc1cc2c(cc1OC)C(Cc1ccc(CC3c4cc(OC)c(OC)cc4CCN3C)cc1)N(C)CC2 (stereo not shown) [Compound 4n E1]

SMILES: COc1cc2c(c(OC)c1OC)C(CCCCC1c3c(cc(OC)c(OC)c3OC)CCN1C)N(C)CC2 (stereo not shown) [Compound 4h E2, 1,4-bis[1-(6,7,8-trimethoxy-2-methyl-1,2,3,4-tetrahydroisoquinolyl)]-butane hydrochloride]
Ki (listed as 4h E2, hydrochloride): 746 ± 136 nM

SMILES: COc1cc2c(cc1OC)C(CCCC1c3cc(OC)c(OC)cc3CCN1C)N(C)CC2 (stereo not shown) [Compound 4d E1, 1,3-bis[1-(6,7-dimethoxy-2-methyl-1,2,3,4-tetrahydroisoquinolyl)]-propane hydrochloride]
Ki / potential to interact with apamin-sensitive sites compared with NML (comparison in words with N-Methyl-Laudanosine): Ki superior to NML
Ki compared with dequalinium (comparison in words with dequalinium): Ki quite similar to dequalinium
Ki (listed as 4d E1, hydrochloride): 293 ± 22 nM

SMILES: COc1ccc(C[C@H]2c3cc(OC)c(OC)cc3CC[N+]2(C)C)cc1OC [NML, N-methyl-laudanosine, reference compound]
% of 125I-apamin displaced at 10 μM: 54%

SMILES: COc1cc2c(c(OC)c1OC)C(CCCCC1c3c(cc(OC)c(OC)c3OC)CCN1C)N(C)CC2.Cl (stereo not shown) [Compound 4h, 1,4-bis[1-(6,7,8-trimethoxy-2-methyl-1,2,3,4-tetrahydroisoquinolyl)]-butane hydrochloride]
% of 125I-apamin displaced at 10 μM: 86%

SMILES: COc1cc2c(cc1OC)C(CCCCCC1c3cc(OC)c(OC)cc3CCN1C)N(C)CC2 (stereo not shown) [Compound 4f E2, 1,5-bis[1-(6,7-dimethoxy-2-methyl-1,2,3,4-tetrahydroisoquinolyl)]-pentane hydrochloride]
Ki (listed as 4f E2, hydrochloride): 1300 ± 39 nM

SMILES: COc1cc2c(cc1OC)C(CCCCC1c3cc(OC)c(OC)cc3CCN1C)N(C)CC2 (stereo not drawn) [Compound 4e MESO, 1,4-bis[1-(6,7-dimethoxy-2-methyl-1,2,3,4-tetrahydroisoquinolyl)]-butane hydrochloride]
Ki (listed as 4e MESO, hydrochloride): 1070 ± 124 nM

Ki (listed as 4n E2): 1120 ± 46 nM
SMILES: COc1cc2c(cc1OC)C(Cc1ccc(CC3c4cc(OC)c(OC)cc4CCN3C)cc1)N(C)CC2 (stereo not shown) [Compound 4n E2]

Reference: patent publication US20090093517A1, “BIS1,2,3,4-TETRAHYDROISOQUINOLINE DERIVATIVES AND THEIR USES AS PHARMACEUTICALS” (UNIVERSITE DE LIEGE, priority 2006, published 2009)
